Data set [1] in a line: Bioavailability in Sprague-Dawley rat at 3.0 mg/kg, po. The data set is classed as ADME, organism-based. The conditions noted are these: in vivo.
Data set [2] in a line: Plasma clearance in Sprague-Dawley rat at 1.0 mg/kg, iv or 3.0 mg/kg, po. In kind it is ADME, organism-based.

These results are taken from ChEMBL document CHEMBL1141499, “Imidazopyridines: a novel class of hNav1.7 channel blockers” (Bioorg Med Chem Lett, 2008).

The term bioavailability denotes dose-corrected exposure relative to a reference, in per cent.

In data set [1], `C[C@@H](c1ccccc1)n1c(CNC(=O)[C@@H](Cc2ccccc2C(F)(F)F)NC(=O)OC(C)(C)C)nc2cccnc21` showed a bioavailability of 36%. In data set [2], this compound registered a clearance of 21 mL/min/kg.

With `CC(C)(C)OC(=O)N[C@H](Cc1ccccc1C(F)(F)F)C(=O)NCc1nc2cccnc2n1C(C)(C)C`, the bioavailability in data set [1] is 31%. This compound also showed a clearance in data set [2] of 36 mL/min/kg.

For `CC(C)(C)OC(=O)N[C@H](Cc1ccccc1C(F)(F)F)C(=O)NCc1nc2cccnc2n1CC(F)(F)F`, in data set [1], the bioavailability amounted to 7%. This compound also came in with a clearance in data set [2] of 113 mL/min/kg.

`CC(C)(C)OC(=O)N[C@H](Cc1ccccc1F)C(=O)NCc1nc2cccnc2n1C1(c2ccccc2)CC1` showed a bioavailability in data set [1] of 47%. For the same compound, the clearance in data set [2] came out at 7.5 mL/min/kg.

The compound `CC(C)(C)OC(=O)N[C@H](Cc1ccccc1C(F)(F)F)C(=O)NCc1nc2cccnc2n1CC(F)(F)C(F)(F)F` had a bioavailability in data set [1] of 10%. In data set [2], the clearance turned out to be 87 mL/min/kg.

As for `O=C(NCc1nc2cccnc2n1C1(c2ccccc2)CC1)[C@@H](Cc1ccccc1Cl)NC(=O)C1(C(F)(F)F)CC1`, the bioavailability in data set [1] turned out to be 78%. The compound also yielded a clearance in data set [2] of 9.3 mL/min/kg.

Compound `CC(C)(C)OC(=O)N[C@H](Cc1ccccc1C(F)(F)F)C(=O)NCc1nc2cccnc2n1Cc1ccccc1` showed a bioavailability in data set [1] of 41%. Moreover, the clearance in data set [2] came out at 15 mL/min/kg.

Compound `CC(C)(C)OC(=O)N[C@H](Cc1ccccc1C(F)(F)F)C(=O)NCc1nc2cccnc2n1C1(c2ccccc2)CC1` displayed a bioavailability in data set [1] of 44%. This compound had a clearance in data set [2] of 3 mL/min/kg.

Regarding `CC(C)(C)OC(=O)N[C@H](Cc1ccccc1C(F)(F)F)C(=O)NCc1nc2cccnc2n1CC1CC1`, the bioavailability in data set [1] was determined as 25%. In addition, in data set [2], the clearance worked out at 114 mL/min/kg.

As to `CC(C)(C)Cn1c(CNC(=O)[C@@H](Cc2ccccc2C(F)(F)F)NC(=O)OC(C)(C)C)nc2cccnc21`, the bioavailability in data set [1] was determined as 17%. In data set [2], the clearance worked out at 64 mL/min/kg.

As to `C[C@H](c1ccccc1)n1c(CNC(=O)[C@@H](Cc2ccccc2C(F)(F)F)NC(=O)OC(C)(C)C)nc2cccnc21`, the bioavailability in data set [1] was 57%. In data set [2], this compound had a clearance of 22 mL/min/kg.

Compound `O=C(NCc1nc2cccnc2n1C1(c2ccccc2)CC1)[C@@H](Cc1c(F)ccc(F)c1F)NC(=O)C1(C(F)(F)F)CC1` had a bioavailability in data set [1] of 85%. Besides, in data set [2], the clearance amounted to 6.6 mL/min/kg.

`O=C(NCc1nc2cccnc2n1C1(c2ccccc2)CC1)[C@@H](Cc1c(F)cccc1F)NC(=O)C1(C(F)(F)F)CC1` came in with a bioavailability in data set [1] of 54%. The compound further gave a clearance in data set [2] of 4.2 mL/min/kg.
